Several values for one entry are separate records, joined by “and”; a condition that tells them apart may be missing. Equal entries are not always repeated.
Assays:
GLP1R [1] = experiment: Insulin secretion in isolated Glp1r+/+ and Glp1r(GE)−/− islets; type: cell-based, mouse; conditions: for Insulin (secreted/total): G16.7+Ex4 (10 nM), individual repeats, listed as Ex4
Description: For all statistical tests, *P < 0.05, **P < 0.01 and NS, non-significant. […] Mean ± s.e.m. are shown. Source data are provided as a Source Data file.

GLP1R [2] = target: T1, GLP1R (Homo sapiens, UniProt P43220); experiment: HTRF cAMP assay in HEK293-SNAP_GLP1R cells, agonist and antagonist modes, with or without PAM BETP; type: cell-based; conditions: n = 4 independent assays; for antagonist properties against GLP-1-induced cAMP production: applied at 1 µM, 30 min GLP-1 stimulation; for agonist or partial agonist activity (cAMP): ligand alone, 30 min
T1 construct: expressed in transfected cells
Description: (§1) Mean ± s.e.m. are shown. **P < 0.01 for all statistical tests. Source data are provided as a Source Data file.
Potency for cAMP generation and inhibition was tested in heterologous expression systems, comprising either stable CHO-K1-SNAP_GLP1R or HEK-SNAP_GLP1R cells, or transiently transfected YFP-AD293-SNAP_GLP1R cells. Briefly, cells were incubated with increasing concentrations of compound with and without allosteric modulator for 30 min, before harvesting, lysis and measurement of cAMP using either cAMP-Glo^TM (Promega) or HTRF (Cisbio) assays, according to the manufacturer’s instructions. All assays were performed in the presence of 100–500 µM IBMX to inhibit phosphodiesterase activity. EC50 values were calculated using log concentration–response curves fitted with a three-parameter or four-parameter equation. […]
pharmacology. HTRF cAMP assays in HEK-SNAP_GLP1R cells in agonist and antagonist modes, stimulated with ligand for 30 min. Note that LUXendins are GLP1R antagonists […]
are shown. Source data are provided as a Source Data file.
(1 picture or pasted object on this page, not shown here)

GLP1R [3] = experiment: Surface GLP1R expression in islets, GLP1R monoclonal antibody staining; type: cell-based, mouse; conditions: LUXendin555 250 nM, LUXendin645 100 nM, Ex9 250 nM
Description: as §1

GLP1R [4] = experiment: cAMP imaging in islets with FRET probe Epac2-camps; type: cell-based, mouse; conditions: Glp1r+/+ versus Glp1r(GE)−/− islets
Description: Islets were transduced with adenovirus harboring the FRET sensor, Epac2-camps[56] (a kind gift from Prof. Dermot Cooper, University of Cambridge), before imaging using a Crest X-Light spinning disk system coupled to a Nikon Ti-E base and ×10/0.4 NA objective. Excitation was delivered at λ = 430–450 nm using a Lumencor Spectra X light engine. Emitted signals were detected at λ = 460–500 and λ = 520–550 nm for Cerulean and Citrine, respectively, using a Photometrics Delta Evolve EM-CCD. Imaging was performed in HEPES–bicarbonate buffer, containing (in mmol/L) 120 NaCl, 4.8 KCl, 24 NaHCO3, 0.5 Na2HPO4, 5 HEPES, 2.5 CaCl2, 1.2 MgCl2, and 3–17 D-glucose.

T1 sequence (P43220 24-463): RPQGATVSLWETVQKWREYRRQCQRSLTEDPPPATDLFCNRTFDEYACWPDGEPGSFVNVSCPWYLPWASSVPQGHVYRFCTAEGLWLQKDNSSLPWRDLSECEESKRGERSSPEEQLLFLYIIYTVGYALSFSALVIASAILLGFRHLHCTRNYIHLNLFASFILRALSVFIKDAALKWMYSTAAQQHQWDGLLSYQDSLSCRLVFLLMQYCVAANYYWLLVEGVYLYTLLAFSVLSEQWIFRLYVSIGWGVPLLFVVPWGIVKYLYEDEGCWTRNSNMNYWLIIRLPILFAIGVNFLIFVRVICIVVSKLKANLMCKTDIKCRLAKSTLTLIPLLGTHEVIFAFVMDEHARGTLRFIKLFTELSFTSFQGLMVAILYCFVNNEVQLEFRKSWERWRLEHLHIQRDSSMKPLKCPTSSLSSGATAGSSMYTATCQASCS

With Exendin4(1–39) the “Exendin4(1–39)-stimulated insulin secretion in Glp1r(GE)−/− islets” value (GLP1R [1]; Ex4 10 nM) was “absence of Exendin4(1–39)-stimulated insulin secretion”, the “Insulin (secreted/total)” value (GLP1R [1]; KO islets) was 0.004511 and 0.004222 and 0.01074 and 0.01469 and 0.006361 and 0.004456 and 0.008025 and 0.00578 and 0.004129 and 0.001581 and 0.003759 and 0.00219 and 0.001686 and 0.003265 and 0.005154 and 0.02304 and 0.01055 and 0.00295 and the “Insulin (secreted/total)” value (GLP1R [1]; WT islets) was 0.004112 and 0.004627 and 0.005837 and 0.009517 and 0.006319 and 0.005338 and 0.01271 and 0.01517 and 0.02135 and 0.009713 and 0.003732 and 0.0026 and 0.01717 and 0.03657 and 0.02723 and 0.004332.
In the case of Exendin4(9–39), the “antagonist properties against GLP-1-induced cAMP production” value (GLP1R [2]) is reported as “similarly blocked”, the “agonist or partial agonist activity (cAMP)” value (GLP1R [2]) is reported as “No agonist or partial agonist activity was detected” and the “GLP1R surface expression in islets” value (GLP1R [3]) is reported as “no differences”.
For “Liraglutide (HAEGTFTSDVSSYLEGQAAKEFIAWLVRGRG; chains of the INN, looked up) [incretin-mimetic]”, the “stimulation of cAMP rises in islets” value (GLP1R [4]) was “only able to stimulate cAMP rises in islets from wild-type”.
For “S39C-Exendin4(9–39): S39C mutant of Exendin4(9–39) with a C-terminal thiol handle”, the “antagonist properties against GLP-1-induced cAMP production” value (GLP1R [2]) was “similarly blocked” and the “agonist or partial agonist activity (cAMP)” value (GLP1R [2]) was “No agonist or partial agonist activity was detected”.

From paper PMC6981144 (Nature Communications, 2020)
